Laboratory results from ChEMBL document CHEMBL5584358, “Fungal Coculture of Herpotrichia sp. and Trametes versicolor Induces Production of Diverse Metabolites with Anti-Parkinson's Neuroprotective Activity” (J Nat Prod, 2024).
Calls of active or inactive are those of the source. No cut-off for these calls is given here.

Experiments:
PC-12 [1] = test: Cytotoxicity against rat PC12 cells assessed as effect on cell viability at 20 uM measured after 24 hrs by CCK-8 assay; format: toxicity, cell-based; conditions: pc-12, 24 h
PC-12 [2] = test: Neuroprotective activity against MPP+-induced rat PC12 cell death assessed as increase in cell viability preincubated for 1 hr followed by MPP+ addition and measured after 24 hrs by CCK-8 assay; format: functional, cell-based; conditions: dose 1-20 µM, time 25.0 hrs
PC-12 [3] = test: Neuroprotective activity against MPP+-induced rat PC12 cell death assessed as cell viability at 20 uM preincubated for 1 hr followed by MPP+ addition and measured after 24 hrs by CCK-8 assay (reference value: 57%); format: functional; conditions: time 25 hrs, read-out: Activity
PC-12 [4] = test: Neuroprotective activity against MPP+-induced rat PC12 cell death assessed as increase in cell viability at […] preincubated for 1 hr followed by MPP+ addition and measured after 24 hrs by CCK-8 assay; format: functional, cell-based; conditions: time 25.0 hrs

SMILES | Activity (PC-12 [1]) | Activity (PC-12 [2]) | viability at 20 µM (PC-12 [3]) [%] | Activity (PC-12 [4])
C=C1CC[C@H]2[C@](C)(CO)CC[C@@H](O)[C@]2(C)[C@H]1CO | Non-Toxic |  |  | 
C=C1CC[C@@H](C(C)(C)O)[C@@H]2C[C@H](C)[C@@H](O)C[C@@H]12 | Non-Toxic | Dose-Dependent Effect | 72 | 
CC1=C[C@@](C)(O)[C@H](C)O[C@H]1/C(C)=C/C=C/C=C/C=C/[C@@]1(C)C2OC(=O)C1(C)C(=O)C2C (some centres undefined) | Non-Toxic |  |  | 
CCC[C@H](O[C@@H]1OC[C@@H](O)[C@H](O)[C@H]1O)c1c(OC)cc(=O)oc1C | Non-Toxic |  |  | 
CC/C=C/c1c(OC)cc(=O)oc1CO | Non-Toxic |  |  | 
CC(=O)[C@H]1CC[C@H]2C3=C[C@H](O)[C@H]4C[C@H](O)CC[C@]4(C)[C@H]3[C@H](O)C[C@]12C | Non-Toxic | Dose-Dependent Effect | 68 | 
CCC[C@H](O)c1c(OC)cc(=O)oc1C | Non-Toxic |  |  | 
CC(CO)[C@@H]1CC[C@@](C)(O)[C@@H]2CCC(CO)=C[C@H]21 (some centres undefined) | Non-Toxic | Dose-Dependent Effect | 69 | Active
COc1cc(=O)oc(C)c1/C=C/CCOC(C)=O | Non-Toxic |  |  | 
Cc1ccc([C@@H](C)[C@@H](C[C@@H](O)C(C)(C)O)O[C@@H]2OC[C@@H](O)[C@H](O)[C@H]2O)cc1 | Non-Toxic |  |  | 
CC(=O)[C@H]1CC[C@@]2(O)C3=CC(=O)[C@@H]4C[C@H](O)CC[C@]4(C)[C@H]3C[C@@H](O)[C@]12C | Non-Toxic | Dose-Dependent Effect | 72 | 
CC1=C[C@](C)(O)[C@H](C)O[C@H]1/C(C)=C/C=C/C=C/C=C/[C@@]1(C)C2OC(=O)C1(C)C(=O)C2C (some centres undefined) | Non-Toxic |  |  | 
CC(=O)[C@H]1CC[C@H]2C3=CC(=O)[C@H]4C[C@H](O)CC[C@]4(C)[C@H]3[C@H](O)C[C@]12C | Non-Toxic | Dose-Dependent Effect | 69 | 
C=CC1(C)CC/C=C(/C)CCC(C(C)(C)O)O1 (centres undefined) [NEROPLOMACROL] | Non-Toxic | Dose-Dependent Effect | 69 | 
CC(C)=CC[C@H](O)[C@@](C)(O)[C@@H](O)C/C=C(/C)[C@H](O)CO | Non-Toxic |  |  | 
C=CC(C)(O)C(O)CC(O)C(C)(O)CCC=C(C)C (centres undefined) | Non-Toxic |  |  | 
